Data set [1] in a line: Rat blood-brain barrier evaluation. The data set is classed as in vivo. As to conditions: rat, oral, SD rats, intragastric 10 mg/kg. How it is done: (1) Animal Administration and Sampling Method:
The study compound A1, the compound A41 and PXS-4728 were dissolved in normal saline to prepare solutions. The prepared solutions were separately administered by intragastric administration to SD rats at a dose of 10 mg/kg. […] At each time point, samples were collected from three SD rats.
On the day of the study, the animals were fixed to collect 0.15 mL of blood from the jugular vein at each set time point, and the whole blood samples were put into anticoagulation tubes containing EDTA-K2. After blood sampling was completed, heart perfusion was immediately performed for the animals, and following the heart perfusion, brain tissue samples were collected.
After the whole blood samples were centrifuged under the condition of 1,524 g for 10 min, top plasma samples were collected into sample tubes. The tissue samples were weighed, added with 20% of aqueous methanol solution at a weight-to-volume ratio of 1:5 (tissue:homogenate) and homogenized. The biological samples were stored at −40° C. to −20° C. for analysis.
(4) Sample Analysis Method:
(§1) Plasma sample: The samples to be tested were taken out of the refrigerator, naturally thawed at room temperature and then swirled for 5 min, and 20 μL of plasma sample was accurately pipetted into 1.5 mL centrifuge tubes. 100 μL of internal standard working solution (solution of 5 ng/mL verapamil and 50 ng/mL glibenclamide in acetonitrile) was added, and uniform mixing was performed. After 1 min of swirling, centrifugation was performed at 13,000 rpm for 8 min. 40 μL of supernate was accurately pipetted into a 96-well plate added with 160 μL water/well in advance. Uniform mixing was performed by swirling for 10 min, followed by LC-MS/MS assay.
as §1, with “Brain tissue” for “Plasma”, “50” for “20”, “250” for “100”, “30” for “40”, “150” for “160”
(5) Data Processing Method:
Analyst 1.6.2 from AB Sciex was used to output concentration results of tested compounds. Microsoft Excel was used to calculate parameters such as mean value, standard deviation and variation coefficient (excluding those outputted directly by Analyst 1.6.2).

The next data set has as its target T1, rhVAP-1 (Homo sapiens, UniProt Q16853).
T1 construct: purchased PeproTech
T1 sequence (Q16853 27-763 limits assumed): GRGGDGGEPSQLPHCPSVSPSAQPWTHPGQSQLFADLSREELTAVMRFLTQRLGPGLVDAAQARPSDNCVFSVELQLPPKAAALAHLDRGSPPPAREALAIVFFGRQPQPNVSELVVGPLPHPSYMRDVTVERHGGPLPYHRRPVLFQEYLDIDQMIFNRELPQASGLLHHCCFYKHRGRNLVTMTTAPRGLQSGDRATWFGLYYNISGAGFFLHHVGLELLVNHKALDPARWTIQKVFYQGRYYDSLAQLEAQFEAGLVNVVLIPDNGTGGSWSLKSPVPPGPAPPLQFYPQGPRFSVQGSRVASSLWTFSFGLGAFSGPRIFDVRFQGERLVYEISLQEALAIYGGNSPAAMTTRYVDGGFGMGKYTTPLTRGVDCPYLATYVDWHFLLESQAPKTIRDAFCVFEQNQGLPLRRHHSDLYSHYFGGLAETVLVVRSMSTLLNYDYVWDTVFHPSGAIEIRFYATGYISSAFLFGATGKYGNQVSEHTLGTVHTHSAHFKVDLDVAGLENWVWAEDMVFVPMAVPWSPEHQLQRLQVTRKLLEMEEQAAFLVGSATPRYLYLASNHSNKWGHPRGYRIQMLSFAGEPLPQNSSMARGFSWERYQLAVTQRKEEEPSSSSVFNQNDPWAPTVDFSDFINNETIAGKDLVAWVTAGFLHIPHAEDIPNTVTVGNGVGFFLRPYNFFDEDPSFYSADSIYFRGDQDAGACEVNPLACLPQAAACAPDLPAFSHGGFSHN
Nature of the data set: Inhibitory activity against rhVAP-1 enzyme (Biological Example 2). The format is biochemical. As to conditions: Table 2; benzylamine substrate, Amplex Red/HRP. How it is done:
1. Inhibitory Activity of Compounds Against rhVAP-1 Enzyme
(§2) (1) Instrument, Consumable and Reagent
Microplate reader (Perkin Elmer, Nivo 5S), black unclear-bottom 96-well plate (Corning) and rhVAP-1 (PeproTech)
(§3) (2) Preparation of Concentration Gradient Compound Solutions
An appropriate amount of the compound to be tested was taken, dissolved in DMSO to 10 mM and then stored. Before the study, an appropriate amount of mother liquor of the 10 mM compound to be tested was taken and gradiently diluted 3-fold with DMSO, 10 concentration gradients in total. Each concentration gradient was then diluted 100-fold with 0.1 M of PBS.
(§4) (3) Preparation of Enzyme Solutions
An appropriate amount of protein diluent was added into rhVAP-1 powder, obtaining 1 mg/mL of mother liquor for storage. Before the study, PBS was used to carry out dilution to obtain enzyme solutions of 4× concentrations.
(§5) (4) Preparation of Substrate Mixtures of 2× Concentrations
An appropriate amount of benzylamine was weighed and dissolved with PBS to obtain 200 mM of benzylamine solution. The benzylamine solution was added with 2 mM of Amplex Red mother liquor and 500 U/mL of HRP mother liquor and diluted with PBS to obtain substrate mixtures of 2× concentrations.
(§6) 10 μL compound solutions of different concentrations, 25 μL rhVAP-1 enzyme solutions of 4× concentrations and 15 μL of PBS were first added into a 96-well plate, shaken to be mixed uniformly and then incubated at 37° C. for 30 min. 50 μL substrate mixtures of 2× concentrations were then added into each well, and the microplate reader was immediately used to perform detection with 580 nm (20 nm) exciting light and 620 nm (10 nm) emission light for 5 min each time, 30 min in total. The inhibition rate was calculated according to the following formula: V (RFU/min)=(Ft (RFU)−F0 (RFU))/(time(min)) Inhibition rate (%)=100%−Vcmpd (RFU/min)/Vmax (RFU/min)×100%
(§7) V: fluorescence change rate; Ft: fluorescence reading at time point t; F0: initial fluorescence reading; Time: duration t; Vcmpd: fluorescence change rate of tested compound; Vmax: Max hole fluorescence change rate.
(§8) (6) Fitting of Dose-Response Curve
(§9) With the log value of concentration as the X axis and the percent inhibition rate as the Y axis, the log (inhibitor) vs. response-variable slope of analysis software GraphPad Prism 5 was used to fit a dose-response curve, thus obtaining the IC50 value of activity of each compound against the enzyme.

The next data set deals with T2, rhAOC1 (Homo sapiens, UniProt P19801).
T2 construct: purchased R&D
T2 sequence (P19801 20-751): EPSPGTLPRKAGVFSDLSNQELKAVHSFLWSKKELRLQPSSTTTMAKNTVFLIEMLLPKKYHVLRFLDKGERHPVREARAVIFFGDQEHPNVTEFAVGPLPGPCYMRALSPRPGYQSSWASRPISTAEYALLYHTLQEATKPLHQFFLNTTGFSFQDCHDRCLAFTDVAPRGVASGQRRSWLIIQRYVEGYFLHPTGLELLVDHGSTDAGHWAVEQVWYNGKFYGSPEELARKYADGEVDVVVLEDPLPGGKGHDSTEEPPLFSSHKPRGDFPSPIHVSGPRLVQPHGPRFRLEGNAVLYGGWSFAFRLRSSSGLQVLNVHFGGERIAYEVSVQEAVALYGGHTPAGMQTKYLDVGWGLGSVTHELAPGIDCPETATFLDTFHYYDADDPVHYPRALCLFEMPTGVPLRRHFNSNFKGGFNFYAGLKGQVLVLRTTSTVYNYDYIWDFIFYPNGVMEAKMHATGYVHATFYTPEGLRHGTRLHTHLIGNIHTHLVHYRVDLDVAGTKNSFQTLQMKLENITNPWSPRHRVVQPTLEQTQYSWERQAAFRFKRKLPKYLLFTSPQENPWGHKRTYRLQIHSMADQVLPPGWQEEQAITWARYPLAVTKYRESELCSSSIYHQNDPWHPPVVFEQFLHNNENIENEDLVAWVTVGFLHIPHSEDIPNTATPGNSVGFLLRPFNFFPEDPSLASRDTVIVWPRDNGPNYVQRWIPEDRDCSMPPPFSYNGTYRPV
Nature of the data set: Selectivity against rhAOC1 enzyme (Biological Example 2). The conditions noted are these: Table 2; histamine substrate, Amplex Red/HRP. The format is biochemical. How it is done:
2. Selectivity of Compounds Against rhAOC1 Enzyme
as §2
Microplate reader (Perkin Elmer, Nivo 5S), black unclear-bottom 96-well plate (Corning) and rhAOC1 (R&D)
as §3
An appropriate amount of the compound to be tested was taken, dissolved in DMSO to 10 mM and then stored. Before the study, an appropriate amount of mother liquor of the 10 mM compound to be tested was taken and gradiently diluted 3-fold with DMSO, 10 concentration gradients in total. Each concentration gradient was then diluted 10-fold with 0.1 M of PBS.
as §4
An appropriate amount of rhAOC1 mother liquor with a concentration of 0.441 mg/mL was taken and diluted with an appropriate amount of 50 mM HEPES buffer solution to obtain enzyme solutions of 4× concentrations.
as §5
An appropriate amount of histamine was weighed and dissolved with 50 mM of HEPES buffer solution to obtain 20 mM of histamine solution. The histamine solution was added with 2 mM of Amplex Red mother liquor and 500 U/mL of HRP mother liquor and diluted with 50 mM of HEPES buffer solution to obtain substrate mixtures of 2× concentrations.
as §6, with “rhAOC1” for “rhVAP-1”, “50 mM HEPES buffer solution” for “PBS”, “detect fluorescence intensity of each well” for “perform detection”
as §7, §8, §9

Where a name gives a salt, the structure may show the parent alone. Read-outs that look alike come from different tables or passages of the source.

For `CC(C)(C)NC(=O)c1ccc(OC/C(=C/F)CN)cc1` [PXS-4728, reference compound], the concentration at 0.167 h in data set [1] (brain, 0.167 h, read-out: Average Brain tissue concentration (N=3)) is 337 ng/g; in data set [1] (plasma, 0.167 h, read-out: Average Plasma concentration (N=3)) it was 373 ng/mL. The concentration at 1 h in data set [1] (brain, 1 h, read-out: Average Brain tissue concentration (N=3)) amounted to 1400 ng/g; in data set [1] (plasma, 1 h, read-out: Average Plasma concentration (N=3)) it was 1040 ng/mL. Moreover, the concentration at 6 h in data set [1] (brain, 6 h, read-out: Average Brain tissue concentration (N=3)) was 311 ng/g; in data set [1] (plasma, 6 h, read-out: Average Plasma concentration (N=3)) it was 175 ng/mL. Also, the Kp at 0.167 h in data set [1] (brain/plasma, 0.167 h, read-out: Mean brain tissue/plasma concentration ratio) worked out at 0.89. In addition, the Kp at 1 h in data set [1] (brain/plasma, 1 h, read-out: Mean brain tissue/plasma concentration ratio) is 1.34. In addition, the Kp at 6 h in data set [1] (brain/plasma, 6 h, read-out: Mean brain tissue/plasma concentration ratio) came out at 1.89.

Regarding `NC/C(=C\F)Cn1cc(C(=O)NC2CC2)cn1` [Compound B4 hydrochloride, (E)-1-(2-(aminomethyl)-3-fluoroallyl)-N-cyclopropyl-1H-pyrazole-4-carboxamide], the IC50 (usually the concentration at which inhibition is half-maximal) at rhVAP-1 came out at 51 nM; against rhAOC1 it was 5930 nM.

Take `CC(C)(C)N1Cc2nn(C/C(=C/F)CN)cc2C1=O` [Compound A13, (E)-2-(2-(aminomethyl)-3-fluoroallyl)-5-(tert-butyl)-5,6-dihydropyrrolo[3,4-c]pyrazol-4(2H)-one]: the IC50 on rhVAP-1 was determined as 58 nM; on rhAOC1 it was 4180 nM.

Consider `NC/C(=C\F)Cn1ccc2cc(C(=O)N3CCC3)ccc21` [Compound C13 hydrochloride, (E)-(1-(2-(aminomethyl)-3-fluoroallyl)-1H-indol-5-yl)(azetidin-1-yl)methanone], for which the IC50 against rhVAP-1 came out at 67 nM; against rhAOC1, 1080 nM.

As to `CC(C)N1CCc2nn(C/C(=C/F)CN)cc2C1=O` [Compound A27 hydrochloride, (E)-2-(2-(aminomethyl)-3-fluoroallyl)-5-isopropyl-2,5,6,7-tetrahydro-4H-pyrazolo[4,3-c]pyridin-4-one], the IC50 was 112 nM against rhVAP-1 and 9650 nM at rhAOC1.
